Data published in US8138159B2, “Composition for inhibiting function of human Flt3” (Takara Bio Inc., priority 2003, dated 2012).

How the values were obtained:
Type in all cases: cell-based, human
[1] = system: MV4-11 (ITD mutation) cells; assay: growth inhibition by siRNA3 in combination with kinase inhibitor AG1295, WST-1 (Example 4); conditions: siRNA3 alone, 1.2 μM at electroporation, 0 μM AG1295, 72 hours
Protocol: The growth inhibitory activity of treatment with a combination of the composition (synthesized siRNA3) of the present invention and a kinase inhibitor on MV4-11 (ITD mutation) cells was examined. The synthesized siRNA3 used was the same as in item (1) of Example 1 above. As the kinase inhibitor, AG1295 (manufactured by CALBIOCHEM) having high specificity to ITD mutation cells was used.
In the same manner as in item (2) of Example 1 above, MV4-11 cells were cultured at 37° C. for 24 hours in a medium obtained by supplementing 10% by volume fetal bovine serum (FBS) to an RPMI 1640 medium (manufactured by TAKARA BIO INC.) (referred to hereinafter as a culture medium) in the presence of 5% by volume CO2. Then, the MV4-11 cells (1×10^6 cells/ml) suspended in Opti-MEM (trade name, manufactured by Invitrogen) were transferred to a cuvette (manufactured by BIO RAD; gap of 4 mm), and siRNA3 was added to the cuvette so as to give a final concentration of 1.2 μM. Then, the cuvette was set in Gene Pulser Xcell (trade name, manufactured by BIO RAD) and thereafter pulsed with electric field intensity of 650 V/cm for 25 msec. Then, the suspension of the cells in the cuvette was added to, and suspended in, a 4-fold excess volume of the culture medium and dispensed onto a 96-well plate so as to give an amount of 100 μl/well. […]
4 mM AG1295 (dissolved in DMSO) was diluted with the above-mentioned culture medium to prepare AG1295 dilutions at a concentration of 10 μM, 6 μM and 0 μM (0.25% by volume DMSO) and added so as to give an amount of 100 μl/well to the 96-well plate prepared in step (2) above and cultured at 37° C. in the presence of 5% by volume CO2. Seventy-two hours after the culture was initiated, the growth activity of the cells was determined using Premix WST-1 reagent (trade name, manufactured by TAKARA BIO INC.) according to a manufacturer's protocol. Each experiment was carried out with n=6, and the mean was determined. The relative growth ratio (%) to the growth ability of the cells transfected with the control siRNA/0 μM AG1295 was determined. […]

[2] = system: Flt3 mRNA; assay: Flt3 mRNA interference by synthesized siRNA, real-time RT-PCR (Example 1); conditions: for inhibition percentage (%) of the relative mRNA expression level (Flt3 mRNA/GAPDH mRNA): siRNA 200 pmol, Oligofectamin, after 24 hours, vs cells transfected without siRNA
Protocol: Each kind of cell selected from HL-60 cells [Flt3 WT (wild-type) low expressing cells; ATCC CCL-240], EoL-1 cells [Flt3 WT (wild-type) highly expressing cells; ECACC 94042252] and MV4-11 cells [Flt3/ITD highly expressing cells; ATCC CRL-9591] was cultured at 37° C. in an RPMI 1640 medium (manufactured by TAKARA BIO INC.) supplemented with 10% by volume fetal bovine serum (FBS) in the presence of 5% by volume CO2.
Then, the cells (2×10^5 cells/nil) were pre-cultured for 24 hours in a 6-well plate, then recovered, and suspended so as to give a density of 1.5×10^5 cells/ml in Opti-MEM (trade name, manufactured by Invitrogen), and the synthesized siRNA was added to the resulting suspension so as to give a final concentration of 200 pmol. Transfection was carried out using Oligofectamin (trade name, manufactured by Invitrogen) in an amount of 4 μl/reaction, according to an Invitrogen's protocol attached to Oligofectamin (trade name). As a control, the cells were subjected to similar operations without adding the siRNA. The unspecific influence of the siRNA was evaluated using an siRNA to a BCR/ABL chimera mRNA.
Confirmation of RNA interference of the target gene was carried out by determining change in mRNA level by a real-time RT-PCR method as shown below.
Using Oligofectamin (trade name, manufactured by Invitrogen), each kind of cell was transfected with the synthesized siRNA. After 24 hours, whole RNA was extracted from the resulting cells with TRIzol™ reagent (manufactured by Invitrogen), and the resulting product was treated with DNaseI (manufactured by TAKARA BIO INC.). The transfection, the extraction of the whole RNA and the treatment with DNaseI were carried out according to a manufacturer's protocol of the reagent used.
The real-time PCR method was carried out using a Real Time One Step RNA PCR Kit (trade name, manufactured by TAKARA BIO INC.), 100 ng of the resulting RNA as a template and a pair of primers (each 20 pmol), that is, an oligonucleotide having the nucleotide sequence of SEQ ID NO: 13 and an oligonucleotide having the nucleotide sequence of SEQ ID NO: 14. In the real-time RT-PCR method, change in fluorescence based on SYBER Green I (manufactured by TAKARA BIO INC.) was determined with Light Cycler (trade name, manufactured by Roche). The RNA level was standardized by similarly determining GAPDH mRNA with primers set forth in SEQ ID NOs: 15 and 16.
The PCR conditions were as follows: after incubation was carried out at 95° C. for 30 seconds, the reaction was carried out in 40 cycles each consisting of the reaction at 95° C. for 1 second, then at 60° C. for 10 seconds, and at 72° C. for 30 seconds.
The inhibition percentage (%) of the relative mRNA expression level (Flt3 mRNA/GAPDH mRNA) changed by using the synthesized siRNA, as calculated assuming that the relative mRNA expression level (Flt3 mRNA/GAPDH mRNA) of the cells only subjected to each operation of the transfection without adding the synthesized siRNA was 100%, was shown in Table 1.

[3] = system: Flt3 mRNA highly expressing cells; assay: cell growth activity, Premix WST1 (Example 2), stated for highly expressing cells together; conditions: regardless of presence or absence of ITD mutation, read-out: IC50 (50% inhibition concentration) of growth
[4] = MV4-11 (ITD mutation-highly expressing)

Substance: siRNA3: siRNA to juxtamembrane region (Flt3/JMD region) (target SEQ ID NO: 7); sense SEQ ID NO: 8, antisense SEQ ID NO: 9 (sense UAUGAAUAUGAUCUCAAAUTT; antisense AUUUGAGAUCAUAUUCAUATT; chemistry not given here)
- growth inhibition as compared with the cells transfected with the control siRNA/0 μM AG1295 [1]: 83.7%
- Relative ratio of inhibition defining RNA interference effect in EoL1 as 1 ([2]; EoL1 (WT-highly expressing), the reference itself): (1)
- inhibition percentage (%) of the relative mRNA expression level (Flt3 mRNA/GAPDH mRNA) ([2]; EoL1 (WT-highly expressing)): 63%
- selective inhibition of Flt3 mRNA expression relative to the inhibition ratio in the Flt3 low expressing cells ([2]; Flt3 highly expressing cells vs Flt3 low expressing cells): ≥ 1.6 fold
- inhibition of Flt3 mRNA expression relative to the cells without using an siRNA ([2]; Flt3 highly expressing cells, regardless of the presence or absence of ITD mutation): 65%
- inhibition percentage (%) of the relative mRNA expression level (Flt3 mRNA/GAPDH mRNA) ([2]; HL60 (WT-low expressing)): 38%
- Relative ratio of inhibition defining RNA interference effect in EoL1 as 1 [2, 4]: (1)
- inhibition percentage (%) of the relative mRNA expression level (Flt3 mRNA/GAPDH mRNA) [2, 4]: 65%
- IC50 [3]: 0.01 µM
